Patent US4250176A, “Piperazine derivatives” (priority 1979, dated 1981)
Converted amounts (≈) assume the structure as drawn. Counter-ions that a name gives are not always drawn. Like-named read-outs stand apart in the source and are kept apart here.

Experiments:
[1] = tested on: Guinea-pig ileum strips, histamine-induced contraction; experiment: Anti-histamine activity in "vitro": histamine-induced spasms of guinea-pig ileum strips; assay type: cell-based; conditions: for IC50: Cavia porcellus, 5 min
Description: The histamine--(0.5 mg/liter) induced spasms are recorded Kymographically with an isotonic lever giving a 5-fold magnification.

[2] = tested on: histamine paw oedema in guinea pigs; experiment: Histamine paw oedema in guinea pigs; assay type: in vivo, guinea pig; conditions: for minimal effective dose: Cavia porcellus, read-out: Anaphylaxis in guinea pigs oral effective dose in mg/kg: Histamine oedema
Outline: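 Guinea pigs of 400–500 g were dosed orally with compound or saline 24 h after subplantar ovalbumin antiserum sensitisation in the left hind paw. Two hours after dosing, histamine 50 μg was injected subplantar into the right hind paw to induce oedema.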

[3] = tested on: Guinea pigs sensitized to ovalbumin (anaphylactic shock); experiment: Anaphylaxis in guinea pigs: protection against death after ovalbumin challenge (survival); assay type: in vivo, guinea pig; conditions: for ED50: Cavia porcellus, read-out: Anaphylaxis in guinea pigs oral effective dose in mg/kg: Survival
Outline: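 Guinea pigs (400–500 g) sensitized by subplantar ovalbumin antiserum, dosed orally 24 h later. ED50 is the oral dose protecting 50% of animals from death.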

[4] = Table I-b, histamine 0.5 mg/liter, 5 minutes incubation, concentration giving significant inhibition (50%) of the contraction, read-out: Histamine in "vitro" (ileum) effective conc.
[5] = Table I-b, oral dose giving paw reaction below 10 units 10 minutes after 50 μg histamine s.p., 2 hours after dosing
[6] = Table I-b, estimated ED50, oral, protection against death after i.v. 0.6 mg ovalbumin
[7] = Table I-e, histamine 0.5 mg/liter, 5 minutes incubation, concentration giving significant inhibition (50%) of the contraction, read-out: Histamine in "vitro" (ileum) effective dose
[8] = Table I-e, oral dose giving paw reaction below 10 units 10 minutes after 50 μg histamine s.p., 2 hours after dosing
[9] = Table I-e, estimated ED50, oral, protection against death after i.v. 0.6 mg ovalbumin

SMILES	IC50 [1, 4] [mg/L]	minimal effective dose [2, 5] [mg/kg]	ED50 [3, 6] [mg/kg]	other results
Cl.Cl.Cl.Clc1ccccc1C(c1ccccc1)N1CCN(CCCn2cnc3ccccc32)CC1.O.O (stereo not drawn) [I-b: M=H, R1=H, (CH2)3, R6=2-Cl, R7=H, 1-[3-{4-[(2-chlorophenyl)phenylmethyl]-1-piperazinyl}propyl]1H-benzimidazole trihydrochloride dihydrate]	0.01	1.25	1.25	–
Clc1ccc(C(c2ccccc2)N2CCN(CCCn3cnc4ccccc43)CC2)cc1 (stereo not drawn) [I-b: M=H, R1=H, (CH2)3, R6=4-Cl, R7=H, 1-[3-{4-[(4-chlorophenyl)phenylmethyl]-1-piperazinyl}propyl]-1H-benzimidazole]	0.01 (≈ 0.0225 µM)	0.31	0.08	–
Fc1ccc(C(c2ccc(F)cc2)N2CCN(CCCn3cnc4ccccc43)CC2)cc1.O [I-b: M=H, R1=H, (CH2)3, R6=4-F, R7=4-F, 1-[3-{4-[bis(4-fluorophenyl)methyl]-1-piperazinyl}propyl]-1H-benzimidazole hydrate]	0.02	0.31	0.16	–
Fc1ccc(C(c2ccccc2)N2CCN(CCCn3cnc4ccccc43)CC2)cc1 (stereo not drawn) [I-b: M=H, R1=H, (CH2)3, R6=4-F, R7=H]	0.005 (≈ 0.0117 µM)	0.31	0.31	–
c1ccc(C(c2ccccc2)N2CCN(CCCn3cnc4ccccc43)CC2)cc1 [I-b: M=H, R1=H, (CH2)3, R6=H, R7=H]	0.0025 (≈ 0.00609 µM)	0.16	0.08	–
CC(C)O.Cl.Cl.Cl.Cl.Cl.Cl.Clc1cccc(C(c2ccccc2)N2CCN(CCCn3cnc4ccccc43)CC2)c1.Clc1cccc(C(c2ccccc2)N2CCN(CCCn3cnc4ccccc43)CC2)c1.O.O (stereo not drawn) [I-b: M=H, R1=H, (CH2)4, R6=3-Cl, R7=H, 1-[3-{4-[(3-chlorophenyl)phenylmethyl]-1-piperazinyl}propyl]-1H-benzimidazole trihydrochloride.hydrate.hemi-2-propanolate]	–	–	–	Histamine in "vitro" (ileum) effective conc. ([1]; Table I-b, histamine 0.5 mg/liter, 5 minutes incubation, concentration giving significant inhibition (50%) of the contraction): 0.01 mg/L; Anaphylaxis in guinea pigs oral effective dose in mg/kg: Histamine oedema [2, 5]: 1.25 mg/kg; Anaphylaxis in guinea pigs oral effective dose in mg/kg: Survival [3, 6]: 1.25 mg/kg
Fc1ccc(C(c2ccc(F)cc2)N2CCN(CCCCn3cnc4ccccc43)CC2)cc1 [I-b: M=H, R1=H, (CH2)4, R6=4-F, R7=4-F, 1-[4-{4-[bis(4-fluorophenyl)methyl]-1-piperazinyl}butyl]-1H-benzimidazole]	0.005 (≈ 0.0109 µM)	0.31	0.31	–
Fc1ccc(C(c2ccccc2)N2CCN(CCCCn3cnc4ccccc43)CC2)cc1 (stereo not drawn) [I-b: M=H, R1=H, (CH2)4, R6=4-F, R7=H, 1-[4-{4-[(4-fluorophenyl)phenylmethyl]-1-piperazinyl}butyl]-1H-benzimidazole]	0.005 (≈ 0.0113 µM)	0.16	0.08	–
c1ccc(C(c2ccccc2)N2CCN(CCCCn3cnc4ccccc43)CC2)cc1 [I-b: M=H, R1=H, (CH2)4, R6=H, R7=H, 1-[4-[4-(diphenylmethyl)-1-piperazinyl]butyl}-1H-benzimidazole]	0.0025 (≈ 0.00589 µM)	0.16	0.16	–
Sc1nc2ccccc2n1CCCN1CCN(C(c2ccccc2)c2ccccc2)CC1 [I-b: M=HS, R1=H, (CH2)3, R6=H, R7=H, 1-{3-[4-(diphenylmethyl)-1-piperazinyl]propyl}-1H-benzimidazole-2-thiol]	0.01 (≈ 0.0226 µM)	1.25	0.63	–
Cl.Cl.O=c1oc2ccccc2n1CCCN1CCN(C(c2ccccc2)c2ccccc2)CC1 [I-c: Y=O, 3-{3-[4-(diphenylmethyl)-1-piperazinyl]propyl}-2(3H)benzoxazolone dihydrochloride]	–	–	–	IC50 ([1]; read-out: Histamine in "vitro" (ileum) effective conc. in mg/l): 0.01 mg/L; minimal effective dose ([2]; po, 2 h): 2.5 mg/kg; ED50 ([3]; po): 0.63 mg/kg
O=c1sc2ccccc2n1CCCN1CCN(C(c2ccccc2)c2ccccc2)CC1 [I-c: Y=S, 3-{3-[4-(diphenylmethyl)-1-piperazinyl]propyl}-2(3H)-benzothiazolone dihydrochloride.hemihydrate]	–	–	–	IC50 ([1]; Table I-c, histamine 0.5 mg/liter, 5 minutes incubation, concentration giving significant inhibition (50%) of the contraction, read-out: Histamine in "vitro" (ileum) effective conc.): 0.01 mg/L; minimal effective dose ([2]; Table I-c, oral dose giving paw reaction below 10 units 10 minutes after 50 μg histamine s.p., 2 hours after dosing): 1.25 mg/kg; ED50 ([3]; Table I-c, estimated ED50, oral, protection against death after i.v. 0.6 mg ovalbumin): 1.25 mg/kg
O=c1[nH]c2ccccc2n1CCCN1CCN(C(c2ccc(Cl)cc2)c2cccnc2)CC1 (stereo not drawn) [I-e: Ar1=4-Cl-C6H4, Ar2=3-pyridinyl, 1-[3-{4-[(4-chlorophenyl)(3-pyridinyl)methyl]-1-piperazinyl}propyl]-1,3-dihydro-2H-benzimidazol-2-one]	–	–	–	IC50 [1, 7]: 0.08 mg/L (≈ 0.173 µM); minimal effective dose [2, 8]: 2.5 mg/kg; ED50 [3, 9]: 1.25 mg/kg
O=c1[nH]c2ccccc2n1CCCN1CCN(C(c2ccc(F)cc2)c2cccnc2)CC1 (stereo not drawn) [I-e: Ar1=4-FC6H4, Ar2=3-pyridinyl, 1-[3-{4-[(4-fluorophenyl)(3-pyridinyl)methyl]-1-piperazinyl}propyl]-1,3-dihydro-2H-benzimidazol-2-one]	–	–	–	IC50 [1, 7]: 0.08 mg/L (≈ 0.18 µM); minimal effective dose [2, 8]: < 2.5 mg/kg; ED50 [3, 9]: < 2.5 mg/kg
CCOC(=O)CCn1c(=O)n(CCCN2CCN(C(c3ccccc3)c3ccccc3)CC2)c2ccccc21 [ethyl 3-{3-[4-(diphenylmethyl)-1-piperazinyl]propyl}-2,3-dihydro-2-oxo-1H-benzimidazole-1-propanoate dihydrochloride. dihydrate]	–	–	–	IC50 ([1]; Table I-a, histamine 0.5 mg/liter, 5 minutes incubation, concentration giving significant inhibition (50%) of the contraction, read-out: Histamine in "vitro" (ileum) effective conc.): 0.005 mg/L; minimal effective dose ([2]; Table I-a, oral dose giving paw reaction below 10 units 10 minutes after 50 μg histamine s.p., 2 hours after dosing): 0.63 mg/kg; ED50 ([3]; Table I-a, estimated ED50, oral, protection against death after i.v. 0.6 mg ovalbumin): 0.63 mg/kg
COC(=O)Nc1nc2ccccc2n1CCCN1CCN(C(c2ccccc2)c2ccccc2)CC1 [methyl [1-{3-[4-(diphenylmethyl)-1-piperazinyl]propyl}-1H-benzimidazol-2-yl]carbamate]	≤ 0.16	2.5	2.5	–
